The test system of data set [1] is Shigella sp. The data set is described as follows: Antibiotic activity (MIC), Gradient Plate in vitro method, Shigella sp. In kind it is cell-based. To be noted: read-out: Minimum Inhibitory Concentration. The source says: (§1) The antibiotic activity of the cephalosporin compounds of the present invention is illustrated by the data presented in Table I for representative compounds. The values in the table are the minimum inhibitory concentrations (MIC) for the test compounds against the indicated microorganisms. The MIC values were obtained in the Gradient Plate in vitro method for determining antibiotic activity.

The test system of data set [2] is Escherichia coli. Description: Antibiotic activity (MIC), Gradient Plate in vitro method, Escherichia coli. It counts as cell-based. Conditions: read-out: Minimum Inhibitory Concentration. The text has this:
(§2) The values in the table are the minimum inhibitory concentrations (MIC) for the test compounds against the indicated microorganisms. The MIC values were obtained in the Gradient Plate in vitro method for determining antibiotic activity.

In data set [3] the test system is Klebsiella pneumoniae. Description: Antibiotic activity (MIC), Gradient Plate in vitro method, Klebsiella pneumoniae. It counts as cell-based. To be noted: read-out: Minimum Inhibitory Concentration.
From the text: as §2

For data set [4], the system named is Aerobacter Aerogenes. Description: Antibiotic activity (MIC), Gradient Plate in vitro method, Aerobacter Aerogenes. In kind it is cell-based. To be noted: Klebsiella aerogenes, read-out: Minimum Inhibitory Concentration.
From the text: as §2

Data set [5] has as its system Salmonella heidelberg. Description: Antibiotic activity (MIC), Gradient Plate in vitro method, Salmonella heidelberg. It counts as cell-based. To be noted: Salmonella enterica, read-out: Minimum Inhibitory Concentration.
From the text: as §2

The test system of data set [6] is Pseudomonas Aeruginosa. Description: Antibiotic activity (MIC), Gradient Plate in vitro method, Pseudomonas Aeruginosa. In kind it is cell-based. Conditions: read-out: Minimum Inhibitory Concentration.
From the text: as §2

In data set [7] the test system is Serratia marcescens. Description: Antibiotic activity (MIC), Gradient Plate in vitro method, Serratia marcescens. In kind it is cell-based. To be noted: read-out: Minimum Inhibitory Concentration.
From the text: as §1

For data set [8], the system named is V41 (penicillin resistant Staphylococcus). The data set is described as follows: Antibiotic activity (MIC), Gradient Plate in vitro method, V41. It counts as cell-based. Conditions: Gradient Plate in vitro; V41, penicillin resistant Staphylococcus; read-out: Minimum Inhibitory Concentration.
From the text: as §1
(§3) ^1 Test organisms V41, V32, and V84 are penicillin resistant

In data set [9] the test system is V32 (penicillin resistant Staphylococcus). Description: Antibiotic activity (MIC), Gradient Plate in vitro method, V32. It counts as cell-based. Conditions: read-out: Minimum Inhibitory Concentration.
From the text: as §1, §3

Data set [10] concerns X466 (methicillin resistant Staphylococcus). The data set is described as follows: Antibiotic activity (MIC), Gradient Plate in vitro method, X466. It counts as cell-based. To be noted: read-out: Minimum Inhibitory Concentration. The source says:
The antibiotic activity of the cephalosporin compounds of the present invention is illustrated by the data presented in Table I for representative compounds. The values in the table are the minimum inhibitory concentrations (MIC) for the test compounds against the indicated microorganisms. The MIC values were obtained in the Gradient Plate in vitro method for determining antibiotic activity. […]

The subject of data set [11] is V84 (penicillin resistant Staphylococcus). Description: Antibiotic activity (MIC), Gradient Plate in vitro method, V84. It counts as cell-based. Conditions: Gradient Plate in vitro; V84, penicillin resistant Staphylococcus; read-out: Minimum Inhibitory Concentration.
From the text: as §1, §3

The nature of data set [12]: Titration (pKa). Conditions: 66% dmf-34% h2o, titration (66% DMF-34% H2O). In kind it is physicochemical.
Setting [13] is: Gradient Plate in vitro, V32, penicillin resistant Staphylococcus.
The mark [14] stands for this setting: first pKa, read-out: pKa (first value).
Setting [15] is: second pKa, read-out: pKa (second value).

Structures are written as SMILES. Values after ≈ are worked out from the molar mass of the structure shown. Like-named read-outs stand apart in the source and are kept apart here. A value given as a limit tells only on which side of the number the result lay.

As to `Cn1nnnc1SCC1=C(C(=O)O)N2C(=O)C(NC(=O)[C@H](NC(=O)c3cccc(O)c3O)c3ccccc3)C2SC1` (stereo partly drawn) [Example 1, 7-[D-[2-Phenyl-2-[(2,3-dihydroxybenzoyl)amino]acetyl]amino]-3-[[(1-methyltetrazol-5-yl)thio]methyl]-3-cephem-4-carboxylic acid], the MIC stood at 3.7 µg/mL (≈ 6.19 µM) in [1]; 14.8 µg/mL (≈ 24.8 µM) in data set [2]; 10 µg/mL (≈ 16.7 µM) in data set [3]; 5.4 µg/mL (≈ 9.04 µM) in [4]; 0.5 µg/mL (≈ 0.837 µM) in [5]; 13.8 µg/mL (≈ 23.1 µM) in data set [6]. Also, the MIC stood at 16.4 µg/mL (≈ 27.4 µM) in data set [7]; 15.1 µg/mL (≈ 25.3 µM) in data set [8]; 132 µg/mL (≈ 221 µM) in data set [9] (setting [13]); 136 µg/mL (≈ 228 µM) in [10]; 10.3 µg/mL (≈ 17.2 µM) in data set [11]. In addition, the pKa in data set [12] (setting [14]) amounted to 5.31; in data set [12] (setting [15]), 8.73.
For `Cn1nnnc1SCC1=C(C(=O)O)N2C(=O)C(NC(=O)[C@H](NC(=O)c3ccc(O)c(O)c3)c3ccc(O)cc3)C2SC1` (stereo partly drawn) [Example 2, 7-[D-[2-(4-Hydroxyphenyl)-2-[(3,4-dihydroxybenzoyl)amino]acetyl]amino]-3-[[(1-methyltetrazol-5-yl)thio]methyl]-3-cephem-4-carboxylic acid], the MIC in data set [1] worked out at 1 µg/mL (≈ 1.63 µM); in data set [2] it was 8.5 µg/mL (≈ 13.9 µM); in data set [3], 0.8 µg/mL (≈ 1.3 µM); in data set [4], 4 µg/mL (≈ 6.52 µM); in data set [5], 0.2 µg/mL (≈ 0.326 µM); in data set [6], 4.9 µg/mL (≈ 7.99 µM). Moreover, the MIC in data set [7] is > 200 µg/mL; in [8], 3.6 µg/mL (≈ 5.87 µM); in data set [9] (setting [13]), 3.8 µg/mL (≈ 6.19 µM); in [10] it was 8.4 µg/mL (≈ 13.7 µM); in [11] it was 3.2 µg/mL (≈ 5.21 µM). In addition, the pKa in data set [12] (setting [14]) was 4.1; in data set [12] (setting [15]) it was 10.9.
Turning to `Cn1nnnc1SCC1=C(C(=O)O)N2C(=O)C(NC(=O)[C@H](NC(=O)c3cccc(O)c3O)c3ccc(O)cc3)C2SC1` (stereo partly drawn) [Example 3, 7-[D-[2-(4-Hydroxyphenyl)-2-[(2,3-dihydroxybenzoyl)amino]acetyl]amino]-3-[[(1-methyltetrazol-5-yl)thio]methyl]-3-cephem-4-carboxylic acid], the MIC in data set [1] amounted to 7 µg/mL (≈ 11.4 µM); in [2] it was 13.2 µg/mL (≈ 21.5 µM); in data set [3] it was 4.1 µg/mL (≈ 6.68 µM); in data set [4], 6.6 µg/mL (≈ 10.8 µM); in data set [5], 1 µg/mL (≈ 1.63 µM); in data set [6], 5.3 µg/mL (≈ 8.64 µM). The MIC in data set [7] was 80 µg/mL (≈ 130 µM); in data set [8], 23 µg/mL (≈ 37.5 µM); in [9] (setting [13]), 23 µg/mL (≈ 37.5 µM); in data set [10] it was 130 µg/mL (≈ 212 µM); in data set [11], 22 µg/mL (≈ 35.9 µM). Besides, the values for the pKa in [12] (setting [14]) and in data set [12] (setting [15]) were 5.02 and 8.83, respectively.
`Cn1nnnc1SCC1=C(C(=O)O)N2C(=O)C(NC(=O)[C@H](NC(=O)c3ccccc3O)c3ccc(O)cc3)C2SC1` (stereo partly drawn) [Example 4, 7-[D-[2-(4-Hydroxyphenyl)-2-[(2-hydroxybenzoyl)amino]acetyl]amino]-3-[[(1-methyltetrazol-5-yl)thio]methyl]-3-cephem-4-carboxylic acid]: the MIC in [1] was found to be 33 µg/mL (≈ 55.2 µM); in data set [2], 60 µg/mL (≈ 100 µM); in [3], 29 µg/mL (≈ 48.5 µM); in data set [4] it was 49 µg/mL (≈ 82 µM); in [5] it was 32.5 µg/mL (≈ 54.4 µM); in data set [6] it was 104 µg/mL (≈ 174 µM). Also, the MIC is > 200 µg/mL in [7]; 4.6 µg/mL (≈ 7.7 µM) in [8]; 4 µg/mL (≈ 6.69 µM) in [9] (Staphylococcus); 41 µg/mL (≈ 68.6 µM) in [10]; 2.2 µg/mL (≈ 3.68 µM) in data set [11]. Also, the results for the pKa in data set [12] (setting [14]) and in [12] (setting [15]) were 5.09 and 10, respectively.
As to `Cc1nnc(SCC2=C(C(=O)O)N3C(=O)C(NC(=O)[C@H](NC(=O)c4c(O)cccc4O)c4ccc(O)cc4)C3SC2)s1` (stereo partly drawn) [Example 5, 7-[D-[2-(4-Hydroxyphenyl)-2-[(2,6-dihydroxybenzoyl)-amino]acetyl]amino]-3-[[(5-methyl-1,3,4-thiadiazol-2-yl)thio]methyl]-3-cephem-4-carboxylic acid], the MIC in data set [1] is 48 µg/mL (≈ 76.2 µM); in data set [2] it was 96 µg/mL (≈ 152 µM); in data set [3] it was 29.5 µg/mL (≈ 46.8 µM); in [4], 110 µg/mL (≈ 175 µM); in data set [5] it was 82 µg/mL (≈ 130 µM); in data set [6] it was 27.5 µg/mL (≈ 43.7 µM). Moreover, the MIC in data set [7] was > 200 µg/mL; in data set [8], 3.7 µg/mL (≈ 5.88 µM); in [9] (setting [13]), 4.6 µg/mL (≈ 7.31 µM); in data set [10], 60 µg/mL (≈ 95.3 µM); in [11], 1.3 µg/mL (≈ 2.06 µM). For the same compound, the pKa was 5.2 in data set [12] (setting [14]) and 9.13 in data set [12] (setting [15]).

(Values after patent US4319028A, “7-(2-(Substituted benzoyl)amino)acetamido)cephalosporins” (Eli Lilly and Company, priority 1976, dated 1982).)
